Laboratory results published in ChEMBL document CHEMBL1152966, “Synthesis of 2alpha-propoxy-1alpha,25-dihydroxyvitamin D3 and comparison of its metabolism by human CYP24A1 and rat CYP24A1” (Bioorg Med Chem, 2009).

Experiments:
[1] = target: T1, Vitamin D-binding protein (Homo sapiens) (UniProt P02774); assay: Binding affinity to vitamin D-binding protein relative to 1-alpha,25-dihydroxyvitamin D3
T1 sequence (whole entry): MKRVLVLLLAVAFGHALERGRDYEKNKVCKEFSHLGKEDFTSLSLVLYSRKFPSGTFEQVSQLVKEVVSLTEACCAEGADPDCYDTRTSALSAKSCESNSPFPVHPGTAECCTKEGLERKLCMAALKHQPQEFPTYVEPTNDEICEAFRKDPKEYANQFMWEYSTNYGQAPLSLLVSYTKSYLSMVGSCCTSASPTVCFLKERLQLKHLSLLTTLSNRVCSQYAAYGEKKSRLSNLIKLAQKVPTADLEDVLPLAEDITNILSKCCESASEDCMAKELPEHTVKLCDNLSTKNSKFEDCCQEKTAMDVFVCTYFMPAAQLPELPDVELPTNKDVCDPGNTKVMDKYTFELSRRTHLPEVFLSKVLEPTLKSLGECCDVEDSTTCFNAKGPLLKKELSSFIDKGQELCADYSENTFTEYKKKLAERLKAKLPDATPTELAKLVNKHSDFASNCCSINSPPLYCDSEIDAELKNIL

[2] = target: T2, Vitamin D3 receptor (Bos taurus) (UniProt Q28037); assay: Binding affinity to bovine thymus VDR relative to 1-alpha,25-dihydroxyvitamin D3
T2 sequence (whole entry): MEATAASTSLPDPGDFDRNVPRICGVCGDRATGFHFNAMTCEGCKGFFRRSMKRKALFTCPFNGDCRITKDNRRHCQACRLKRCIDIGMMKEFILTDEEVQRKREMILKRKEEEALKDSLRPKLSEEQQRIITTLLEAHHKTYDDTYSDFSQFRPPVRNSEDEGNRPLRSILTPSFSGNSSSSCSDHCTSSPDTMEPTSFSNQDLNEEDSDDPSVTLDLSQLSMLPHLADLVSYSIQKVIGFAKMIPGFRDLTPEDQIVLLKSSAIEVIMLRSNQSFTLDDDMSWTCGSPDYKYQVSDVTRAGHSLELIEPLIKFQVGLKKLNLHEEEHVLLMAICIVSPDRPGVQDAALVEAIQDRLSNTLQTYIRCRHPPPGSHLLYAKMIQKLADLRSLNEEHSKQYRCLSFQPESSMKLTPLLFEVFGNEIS

[3] = target: T2, Vitamin D3 receptor (Bos taurus); assay: Displacement of [3H]1-alpha,25-dihydroxyvitamin D3 from calf thymus VDR by liquid scintillation counting
[4] = target: T3, 1,25-dihydroxyvitamin D(3) 24-hydroxylase, mitochondrial (Homo sapiens, UniProt Q07973); assay: Binding affinity to human CYP24A1 expressed in Escherichia coli assessed as catalytic efficiency after 60 mins relative 1-alpha,25-dihydroxyvitamin D3; conditions: 1 h
T3 sequence (Q07973 whole entry): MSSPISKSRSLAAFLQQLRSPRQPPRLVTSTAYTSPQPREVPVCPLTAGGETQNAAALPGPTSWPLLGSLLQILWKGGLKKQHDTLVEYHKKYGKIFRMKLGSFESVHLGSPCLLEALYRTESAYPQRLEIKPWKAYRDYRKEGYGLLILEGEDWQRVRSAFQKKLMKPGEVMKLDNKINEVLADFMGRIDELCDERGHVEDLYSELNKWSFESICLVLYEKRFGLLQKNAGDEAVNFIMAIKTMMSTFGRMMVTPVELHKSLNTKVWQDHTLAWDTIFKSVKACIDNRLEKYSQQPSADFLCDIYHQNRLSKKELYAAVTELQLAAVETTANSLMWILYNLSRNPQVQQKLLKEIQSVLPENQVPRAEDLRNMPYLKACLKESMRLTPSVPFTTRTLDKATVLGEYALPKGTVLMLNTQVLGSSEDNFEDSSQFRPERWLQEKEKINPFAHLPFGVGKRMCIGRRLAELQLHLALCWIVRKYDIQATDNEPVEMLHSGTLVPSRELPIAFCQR

| Activity [1] | Activity [2] [%] | Activity [3] [%] | Activity [4] [%] | SMILES |
| --- | --- | --- | --- | --- |
| 2 | 13 |  |  | C=C1/C(=C\C=C2/CCC[C@]3(C)[C@@H]([C@H](C)CCCC(C)(C)O)CC[C@@H]23)C[C@H](O)[C@H](OCCCO)[C@H]1O |
|  | 180 | 180 | 2 | C=C1/C(=C\C=C2/CCC[C@]3(C)[C@@H]([C@H](C)CCCC(C)(C)O)CC[C@@H]23)C[C@H](O)[C@@H](OCCCO)[C@H]1O |
|  | 64 |  |  | C=C1/C(=C\C=C2/CCC[C@]3(C)[C@@H]([C@H](C)CCCC(C)(C)O)CC[C@@H]23)C[C@H](O)[C@@H](OCCC)[C@H]1O |
